Assay results reported in publication PMC7700423, “Differential Effects of 1α,25-Dihydroxyvitamin D3 on the Expressions and Functions of Hepatic CYP and UGT Enzymes and Its Pharmacokinetic Consequences In Vivo” (Pharmaceutics, 2020).
Values belong to the compound of their own block, whether it stands above or below them.

Key:
[1] = Pharmacokinetics of BUP and HBUP after intravenous BUP in rats; format: in vivo, rat; details: for CL renal: plasma and urine; for AUC: n = 6-7; for Vd: read-out: Vss; for Ae0-24h: urine 0-24 h; for Tmax: median (range)
Procedure: Male Sprague-Dawley (SD) rats (8 weeks, 260–280 g) were purchased from Nara Biotech Co. (Seoul, Korea). Animals were maintained in cages under controlled conditions under a 12-h dark/light cycle with free access to food and tap water, acclimated for at least five days in the laboratory before experiments, and allocated to a control group or 1,25(OH)2D3-treated group. The 1,25(OH)2D3 dosing solution was prepared by diluting 1,25(OH)2D3 in ethanol with 5 mL of corn oil (2.56 nmol/mL of final concentration). The dosing solution for the control group was prepared but the 1,25(OH)2D3 was omitted. The dosing solutions were administered intraperitoneally to rats at a dose of 1 mL/kg/day (2.56 nmol/kg/day as 1,25(OH)2D3) over four consecutive days. On the fifth day, rats were used for pharmacokinetic study.
In vivo pharmacokinetic animal experiments were accomplished according to the Guide for the Care and Use of Laboratory Animals issued by the National Institute of Health, as described previously. Before starting the animal studies, all experimental protocols were reviewed and approved by the Animal Care and Use Committee of Gachon University (Approval no. GIACUC-R2019020; approved on July 1st, 2019). SD male rats (8–9 weeks, 250–300 g, Nara Biotech Co., Seoul, South Korea) had free access to food and water, acclimatized and maintained in the room under a 12-h light/dark cycle for a week before the study. After pretreatment with 1,25(OH)2D3 for 4 continuous days, the rats in the control and 1,25(OH)2D3 groups were anesthetized with Zoletil® (Vibrac, TX, USA) (10 mg/kg i.m.) and then the femoral vein and artery were cannulated with polyethylene tubing (Clay Adams, NJ, USA) for drug administration and blood sampling, respectively, as described previously. The pharmacokinetic experiment was initiated by drug administration after the rats were recovered from anesthesia. […] Approximately 100 μL of blood was collected via the femoral artery at 0, 1, 5, 15, 30, 60, 120, 180, 240, 360, 480, and 600 min after the drug administration. […] Blood samples were collected at 0, 1, 5, 15, 30, 60, 90, 120, 180, 240, 360, and 480 min later and immediately centrifuged at 14,000× g for 15 min at 4 °C. For compensation of fluid loss, a same volume of saline was intravenously provided after each sample collection. Plasma was then separated from whole blood cells and stored at −20 °C for further analysis. Urine samples were collected 0–4, 4–8, and 8–24 h after drug administration. The collected urine samples were diluted with distilled deionized water (DDW) 20-fold prior to LC-MS/MS analysis. […] The weighted tissues were homogenized on ice by an electric homogenizer following adding 2-fold volume of PBS. The homogenates were stored before LC-MS/MS analysis.
(§1) Moreover, CLNR was calculated to subtract CLR from CL.

[2] = Tissue distribution of TOL and HTOL in rats; format: in vivo, rat; details: for Tissue to plasma concentration ratio (Kp), Liver: n = 4-6
Procedure: (§2) Male Sprague-Dawley (SD) rats (8 weeks, 260–280 g) were purchased from Nara Biotech Co. (Seoul, Korea). […] The dosing solution for the control group was prepared but the 1,25(OH)2D3 was omitted. […] On the fifth day, rats were used for pharmacokinetic study.
(§3) In vivo pharmacokinetic animal experiments were accomplished according to the Guide for the Care and Use of Laboratory Animals issued by the National Institute of Health, as described previously. […] After pretreatment with 1,25(OH)2D3 for 4 continuous days, the rats in the control and 1,25(OH)2D3 groups were anesthetized with Zoletil® (Vibrac, TX, USA) (10 mg/kg i.m.) and then the femoral vein and artery were cannulated with polyethylene tubing (Clay Adams, NJ, USA) for drug administration and blood sampling, respectively, as described previously. The pharmacokinetic experiment was initiated by drug administration after the rats were recovered from anesthesia. […] Approximately 100 μL of blood was collected via the femoral artery at 0, 1, 5, 15, 30, 60, 120, 180, 240, 360, 480, and 600 min after the drug administration. […] For compensation of fluid loss, a same volume of saline was intravenously provided after each sample collection. Plasma was then separated from whole blood cells and stored at −20 °C for further analysis. […] The collected urine samples were diluted with distilled deionized water (DDW) 20-fold prior to LC-MS/MS analysis. […] The weighted tissues were homogenized on ice by an electric homogenizer following adding 2-fold volume of PBS. The homogenates were stored before LC-MS/MS analysis.

[3] = Pharmacokinetics of TOL and HTOL after intravenous TOL in rats; format: in vivo, rat; details: for Tmax: median (range); for Ae0-24h: urine 0-24 h; for Vd: read-out: Vss
Procedure: as §2, §3, §1

Cyp2c11 = biological target: T1, Cyp2c11 (Rattus norvegicus, UniProt P08683); experiment: Tolbutamide 4-hydroxylation (HTOL formation) in rat liver microsomes; details: for CLint: n = 3
T1 sequence (P08683 1-500): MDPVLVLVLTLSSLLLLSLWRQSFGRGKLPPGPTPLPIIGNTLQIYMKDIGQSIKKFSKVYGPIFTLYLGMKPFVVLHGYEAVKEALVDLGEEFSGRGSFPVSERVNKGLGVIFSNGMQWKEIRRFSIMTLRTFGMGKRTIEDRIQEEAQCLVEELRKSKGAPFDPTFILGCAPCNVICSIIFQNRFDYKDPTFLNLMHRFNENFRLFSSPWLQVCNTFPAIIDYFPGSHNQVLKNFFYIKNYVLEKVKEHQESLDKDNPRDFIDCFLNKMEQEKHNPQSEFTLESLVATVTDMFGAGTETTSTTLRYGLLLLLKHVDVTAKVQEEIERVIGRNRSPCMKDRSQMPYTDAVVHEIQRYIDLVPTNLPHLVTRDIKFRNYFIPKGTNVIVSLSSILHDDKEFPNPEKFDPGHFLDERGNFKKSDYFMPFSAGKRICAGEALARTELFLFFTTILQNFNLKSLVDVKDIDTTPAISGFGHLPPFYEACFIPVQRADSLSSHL

[4] = i.v. 5 mg/kg BUP, 1,25(OH)2D3-treated rats
[5] = male, Sprague-Dawley, rat, plasma, iv, 5 mg/kg, i.v. 5 mg/kg BUP, 1,25(OH)2D3-treated rats
[6] = male, Sprague-Dawley, rat, plasma, iv, 5 mg/kg, i.v. 5 mg/kg BUP, control rats
[7] = 8 h after i.v. 2 mg/kg TOL, 1,25(OH)2D3-treated rats
[8] = 8 h after i.v. 2 mg/kg TOL, control rats
[9] = formed metabolite, i.v. 2 mg/kg TOL, 1,25(OH)2D3-treated rats
[10] = formed metabolite, i.v. 2 mg/kg TOL, control rats
[11] = i.v. 2 mg/kg TOL, 1,25(OH)2D3-treated rats
[12] = male, Sprague-Dawley, rat, plasma, iv, 2 mg/kg, i.v. 2 mg/kg TOL, 1,25(OH)2D3-treated rats
[13] = male, Sprague-Dawley, rat, plasma, iv, 2 mg/kg, i.v. 2 mg/kg TOL, control rats

Renal clearance as portion of total clearance ([1]; 1,25(OH)2D3-treated rats): 1.92%
Renal clearance as portion of total clearance ([1]; control rats): 0.7%
CLNR [1, 4]: 53.55 ± 13.02 mL/min/kg
CLNR ([1]; i.v. 5 mg/kg BUP, control rats): 93.08 ± 13.73 mL/min/kg
CL renal ([1]; male, Sprague-Dawley, rat, iv, 5 mg/kg, i.v. 5 mg/kg BUP, 1,25(OH)2D3-treated rats): 1.05 ± 0.407 mL/min/kg
CL renal ([1]; male, Sprague-Dawley, rat, iv, 5 mg/kg, i.v. 5 mg/kg BUP, control rats): 0.662 ± 0.635 mL/min/kg
MRT [1, 5]: 1.47 h
clearance [1, 5]: 54.6 ± 13.4 mL/min/kg
half-life [1, 5]: 2.24 ± 0.812 h
AUC ([1]; male, Sprague-Dawley, rat, plasma, iv, 5 mg/kg, i.v. 5 mg/kg BUP, 1,25(OH)2D3-treated rats, read-out: AUC (converted)): 1610 ng·h/mL
Vd [1, 5]: 5.4 ± 1.87 L/kg
MRT [1, 6]: 1.19 h
clearance [1, 6]: 93.6 ± 14.2 mL/min/kg
half-life [1, 6]: 2.59 ± 0.432 h
AUC ([1]; male, Sprague-Dawley, rat, plasma, iv, 5 mg/kg, i.v. 5 mg/kg BUP, control rats, read-out: AUC (converted)): 906 ng·h/mL
Vd [1, 6]: 7.82 ± 1.95 L/kg
Ae0-24h [1, 4]: 1.791 ± 0.031 % of dose
Ae0-24h ([1]; i.v. 5 mg/kg BUP, control rats): 0.719 ± 0.613 % of dose
Compound: CC(NC(C)(C)C)C(=O)c1cccc(Cl)c1 (stereo not drawn) [BUP, bupropion]

Tissue to plasma concentration ratio (Kp), Brain [2, 7]: 0.019 ± 0.004
Tissue to plasma concentration ratio (Kp), Heart [2, 7]: 0.252 ± 0.036
Tissue to plasma concentration ratio (Kp), Kidney [2, 7]: 7.768 ± 0.014
Tissue to plasma concentration ratio (Kp), Spleen [2, 7]: 0.163 ± 0.008
Tissue to plasma concentration ratio (Kp), Liver [2, 7]: 0.657 ± 0.129
Tissue to plasma concentration ratio (Kp), Brain [2, 8]: 0.020 ± 0.008
Tissue to plasma concentration ratio (Kp), Heart [2, 8]: 0.175 ± 0.013
Tissue to plasma concentration ratio (Kp), Kidney [2, 8]: 5.335 ± 1.127
Tissue to plasma concentration ratio (Kp), Spleen [2, 8]: 0.137 ± 0.010
Tissue to plasma concentration ratio (Kp), Liver [2, 8]: 0.831 ± 0.152
AUC [3, 9]: 151.9 ± 52.0 µg·min/mL
CLR [3, 9]: 0.873 ± 0.134 mL/min/kg
AUC [3, 10]: 100.8 ± 65.2 µg·min/mL
CLR [3, 10]: 2.713 ± 0.570 mL/min/kg
Cmax [3, 11]: 207 ± 119 ng/mL
t1/2 [3, 11]: 10.5 ± 8.193 h
Cmax ([3]; i.v. 2 mg/kg TOL, control rats): 167 ± 67 ng/mL
t1/2 ([3]; i.v. 2 mg/kg TOL, control rats): 8.688 ± 8.317 h
Tmax [3, 11]: 120 (60–240) min
Tmax ([3]; i.v. 2 mg/kg TOL, control rats): 60 (15–120) min
Ae0-24h [3, 11]: 5.539 ± 2.305 % of dose
Ae0-24h ([3]; i.v. 2 mg/kg TOL, control rats): 9.356 ± 0.471 % of dose
Compound: CCCCNC(=O)NS(=O)(=O)c1ccc(CO)cc1 [HTOL, 4-hydroxytolbutamide]

CLNR [3, 11]: 0.206 ± 0.045 mL/min/kg
CLNR ([3]; i.v. 2 mg/kg TOL, control rats): 0.189 ± 0.030 mL/min/kg
clearance [3, 12]: 0.206 ± 0.045 mL/min/kg
half-life [3, 12]: 9.4 ± 3.46 h
AUC ([3]; male, Sprague-Dawley, rat, plasma, iv, 2 mg/kg, i.v. 2 mg/kg TOL, 1,25(OH)2D3-treated rats, n = 9-10, read-out: AUC (converted)): 10200 µg·min/mL
Vd [3, 12]: 0.153 ± 0.0195 L/kg
MRT [3, 13]: 11 h
clearance [3, 13]: 0.189 ± 0.027 mL/min/kg
half-life [3, 13]: 7.71 ± 2.56 h
AUC ([3]; male, Sprague-Dawley, rat, plasma, iv, 2 mg/kg, i.v. 2 mg/kg TOL, control rats, n = 9-10, read-out: AUC (converted)): 10800 µg·min/mL
Vd [3, 13]: 0.12 ± 0.0156 L/kg
CL renal ([3]; male, Sprague-Dawley, rat, urine and plasma, iv, 2 mg/kg): 0.000208 ± 0.000103 mL/min/kg
Ae0-24h [3, 11]: 0.024 ± 0.016 % of dose
Ae0-24h ([3]; i.v. 2 mg/kg TOL, control rats): 0.124 ± 0.059 % of dose
CLint (Cyp2c11; RLMs from 1,25(OH)2D3-treated rats): 0.89 ± 0.18 μL/min/mg protein
CLint (Cyp2c11; RLMs from control rats): 3.00 ± 0.63 μL/min/mg protein
CLint lower in 1,25(OH)2D3-treated rats than in controls (Cyp2c11; RLMs, p = 0.0051): 70%
Compound: CCCCNC(=O)NS(=O)(=O)c1ccc(C)cc1 [TOL, tolbutamide]

Compound: C[C@H]1NC(C)(C)CO[C@]1(O)c1cccc(Cl)c1 [HBUP, hydroxybupropion]
CLR [1, 4]: 0.077 ± 0.031 mL/min/kg
Cmax [1, 4]: 68 ± 21 ng/mL
t1/2 [1, 4]: 3.283 ± 0.903 h
AUC [1, 4]: 329.5 ± 151 ng·h/mL
CLR ([1]; i.v. 5 mg/kg BUP, control rats): 0.222 ± 0.124 mL/min/kg
Cmax ([1]; i.v. 5 mg/kg BUP, control rats): 46 ± 32 ng/mL
t1/2 ([1]; i.v. 5 mg/kg BUP, control rats): 2.673 ± 0.627 h
AUC ([1]; i.v. 5 mg/kg BUP, control rats): 76.83 ± 31.63 ng·h/mL
Tmax [1, 4]: 15 (15–60) min
Tmax ([1]; i.v. 5 mg/kg BUP, control rats): 15 min
Ae0-24h [1, 4]: 0.026 ± 0.008 % of dose
Ae0-24h ([1]; i.v. 5 mg/kg BUP, control rats): 0.015 ± 0.007 % of dose
